Holding throughout (experiment): NCI tumour cell line growth inhibition, 48 h
The test system of assay [1] is NCI-H226.
The subject of assay [2] is IGROV-1.
The test system of assay [3] is CAKI-1.
The test system of assay [4] is SK-MEL-5.
Assay [5] relates to ACHN.
In assay [6] the test system is MDA-N.
In assay [7] the test system is HT-29.
Assay [8] concerns SW-620.
Assay [9] has as its system KM12.
Assay [10] relates to MOLT-4.
Assay [11] concerns A549.
For assay [12], the system named is OVCAR-4.
In assay [13] the test system is SF-268.
The test system of assay [14] is A498.
Assay [15] has as its system HOP-92.
For assay [16], the system named is OVCAR-3.
Assay [17] has as its system NCI/ADR-RES.
For assay [18], the system named is RXF 393.
Assay [19] deals with UACC-257.

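Five concentrations, 48 hours, 96-well plates. GI50 = concentration required for 50% inhibition of growth.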 Activity calls are given as the source filed them. Rule as the data show it: active = GI50 up to about 1.1 µM and inactive = higher.

As for `Cc1c(-c2ccccc2)n[nH]c1NC1(C)C(=O)N(/N=C/c2ccccc2)N=C1c1ccccc1` (stereo not given), the GI50 was > 100 µM (inactive) in assay [1]; > 100 µM (inactive) in [2]; > 100 µM (inactive) in assay [3]; 7.96 µM (inactive) in assay [4]; 24.7 µM (inactive) in [5]; 97.5 µM (inactive) in [6]. For the same molecule, the GI50 in assay [7] was > 100 µM (inactive); in [8], > 93.3 µM (inactive); in assay [9] it was 38.6 µM (inactive); in assay [10], 10.2 µM (inactive); in assay [11], 7.4 µM (inactive); in assay [12] it was 31.8 µM (inactive). The GI50 is > 100 µM (inactive) in assay [13]; > 83.4 µM (inactive) in assay [14]; > 100 µM (inactive) in assay [15]; > 31.6 µM (inactive) in assay [16]; 43.8 µM (inactive) in assay [17]; > 29.8 µM (inactive) in assay [18]. Besides, the GI50 in assay [19] is > 100 µM (inactive).

On to `CC(C)c1ccc(C(c2c(O)oc3ccccc3c2=O)c2c(O)oc3ccccc3c2=O)cc1`, for which the GI50 in assay [1] was 20.6 µM (inactive); in assay [2], 24.8 µM (inactive); in [3], 22.8 µM (inactive); in assay [4], 16 µM (inactive); in assay [5] it was 26.2 µM (inactive); in [6], 21.5 µM (inactive). The GI50 in assay [7] is 20.8 µM (inactive); in assay [8], 17.1 µM (inactive); in [9], 19.5 µM (inactive); in assay [10], 6.55 µM (inactive); in assay [11], 19.1 µM (inactive); in assay [12], 28.4 µM (inactive). Besides, the GI50 in [13] is 25.6 µM (inactive); in [14], 17.7 µM (inactive); in assay [15], 7.85 µM (inactive); in assay [16], 18.7 µM (inactive); in [17], 22.3 µM (inactive); in assay [18], 21.8 µM (inactive). The GI50 in [19] was 21.3 µM (inactive).

Take `Cc1cn(CCCC2=NCCCN2)c(=O)[nH]c1=O`: the GI50 in [1], in assay [2], in [3], in assay [4], in [5] and in assay [6] was > 100 µM (inactive) throughout. Moreover, the GI50 in [7], in [8], in assay [9], in assay [10], in assay [11] and in [12] was > 100 µM (inactive) throughout. Further, the GI50 in [13], in assay [14], in assay [15], in assay [16], in assay [17] and in assay [18] was > 100 µM (inactive) each time. Besides, in assay [19], the GI50 is > 100 µM (inactive).

For `O=C1c2ccc(O)cc2OC(c2cc(O)c(O)c(O)c2)C1O` (stereo not given) [DIHYDROBINETIN], the GI50 in assay [1] is 39.1 µM (inactive); in [2], 18 µM (inactive); in assay [3], 53.8 µM (inactive); in [4] it was 33 µM (inactive); in assay [5], 25.8 µM (inactive); in assay [6], 18.4 µM (inactive). Further, the GI50 was 23.4 µM (inactive) in assay [7]; 25 µM (inactive) in assay [8]; 26.7 µM (inactive) in assay [9]; 19.1 µM (inactive) in assay [10]; > 100 µM (inactive) in [11]; 37.9 µM (inactive) in [12]. Also, the GI50 is 34.1 µM (inactive) in assay [13]; 28.1 µM (inactive) in [14]; > 100 µM (inactive) in [15]; 47.9 µM (inactive) in assay [16]; 25.1 µM (inactive) in assay [17]; > 100 µM (inactive) in assay [18]. Moreover, the GI50 in assay [19] is 34.8 µM (inactive).

Consider `O=C(O)c1cc(O)nc(S)n1`, for which the GI50 in assay [1], in [2], in [3], in assay [4], in assay [5] and in assay [6] was > 100 µM (inactive) each time. Also, the GI50 in assay [7], in [8], in [9], in assay [10], in assay [11] and in assay [12] was > 100 µM (inactive) in each case. Besides, the GI50 in [13], in [14], in assay [15], in [16], in assay [17] and in assay [18] was > 100 µM (inactive) in each case. In [19], the GI50 was > 100 µM (inactive).

Turning to `COc1ccc2c(c1)CCCC(Br)C2=O` (stereo not given), the GI50 was 2.18 µM (inactive) in assay [1]; 1.51 µM (inactive) in [2]; 2.96 µM (inactive) in assay [3]; 2.55 µM (inactive) in assay [4]; 6.32 µM (inactive) in assay [5]; 2.88 µM (inactive) in [6]. Further, the GI50 is 5.31 µM (inactive) in assay [7]; 2.29 µM (inactive) in assay [8]; 3.24 µM (inactive) in assay [9]; 0.136 µM (active) in assay [10]; 4.71 µM (inactive) in assay [11]; 6.52 µM (inactive) in assay [12]. The GI50 in [13] is 3.35 µM (inactive); in assay [14] it was 19.6 µM (inactive); in assay [15] it was 7.57 µM (inactive); in assay [16], 9.08 µM (inactive); in assay [17], 4.34 µM (inactive); in assay [18], 4.78 µM (inactive). Besides, the GI50 in [19] was 11.5 µM (inactive).

As to `Nc1ccc(Oc2ccc(C3(c4ccc(Oc5ccc(N)cc5)cc4)C4CC5CC(C4)CC3C5)cc2)cc1`, the GI50 is 19.9 µM (inactive) in [1]; 12.8 µM (inactive) in assay [2]; 15.8 µM (inactive) in assay [3]; 14.4 µM (inactive) in assay [4]; 7.8 µM (inactive) in assay [5]; 6.32 µM (inactive) in assay [6]. The GI50 in [7] is 0.489 µM (active); in assay [8], 4.26 µM (inactive); in assay [9], 3.77 µM (inactive); in assay [10] it was 4.27 µM (inactive); in assay [11], 6.08 µM (inactive); in assay [12], 8.71 µM (inactive). Besides, the GI50 in assay [13] was 20.3 µM (inactive); in assay [14] it was 2.91 µM (inactive); in assay [15] it was 11.5 µM (inactive); in [16], 0.353 µM (active); in [17] it was 15.8 µM (inactive); in [18], 6.3 µM (inactive). In assay [19], the GI50 is 6.67 µM (inactive).

For the molecule `CN(/N=C/c1cccc2cccnc12)c1ccc(Cl)cc1[N+](=O)[O-]`, the GI50 is > 100 µM (inactive) in assay [1]; > 100 µM (inactive) in [2]; 45.2 µM (inactive) in [3]; > 100 µM (inactive) in assay [4]; > 100 µM (inactive) in assay [5]; > 100 µM (inactive) in assay [6]. Moreover, the GI50 in assay [7] was 59.4 µM (inactive); in assay [8], > 100 µM (inactive); in assay [9], 96.8 µM (inactive); in [10], 76.7 µM (inactive); in [11], > 100 µM (inactive); in assay [12] it was > 100 µM (inactive). Further, the GI50 in assay [13] is > 100 µM (inactive); in assay [14], > 100 µM (inactive); in [15], 31.7 µM (inactive); in assay [16] it was > 100 µM (inactive); in assay [17], 87.1 µM (inactive); in assay [18], > 100 µM (inactive). For the same molecule, the GI50 in [19] is > 100 µM (inactive).

For `C=CCc1cc(C(Cc2ccccc2)NC(C)C)cc(OCc2ccccc2)c1OCc1ccccc1` (stereo not given), the GI50 in assay [1] was 17.7 µM (inactive); in [2], 15.8 µM (inactive); in assay [3] it was 15.7 µM (inactive); in assay [4], 16.6 µM (inactive); in assay [5] it was 16.9 µM (inactive); in [6] it was 13.2 µM (inactive). Further, the GI50 was 15.1 µM (inactive) in assay [7]; 18.2 µM (inactive) in [8]; 20.7 µM (inactive) in assay [9]; 10.7 µM (inactive) in assay [10]; 16.7 µM (inactive) in assay [11]; 17.4 µM (inactive) in assay [12]. Further, the GI50 is 16 µM (inactive) in assay [13]; 15.3 µM (inactive) in [14]; 12.5 µM (inactive) in assay [15]; 16.7 µM (inactive) in assay [16]; 16.3 µM (inactive) in assay [17]; 14.4 µM (inactive) in [18]. In assay [19], the GI50 was 18.8 µM (inactive).

For the molecule `OCCCNc1[nH]cnc2nncc1-2`, the GI50 is > 100 µM (inactive) in [1]; > 100 µM (inactive) in assay [2]; 9.82 µM (inactive) in assay [3]; > 100 µM (inactive) in assay [4]; > 100 µM (inactive) in [5]; > 100 µM (inactive) in assay [6]. Besides, the GI50 in [7], in assay [8], in assay [9], in assay [10], in [11] and in assay [12] was > 100 µM (inactive) each time. For the same molecule, the GI50 in assay [13], in assay [14], in [15], in assay [16], in [17] and in [18] was > 100 µM (inactive) throughout. Also, in assay [19], the GI50 is > 100 µM (inactive).

For the origin of these results see ChEMBL document CHEMBL1201862, “PubChem BioAssay data set” (2004).
